“Also recorded” adds a separate entry of the source.
Key:
Type in all cases: in vivo
DBA2 mouse = experiment: PET test using normal mouse; radioactivity of isolated heart and femur by gamma counter; details: for SUV Femur: isolated femur; for SUV Femur / SUV Heart: 120 minutes after administration, about 10 MBq tail vein, male DBA2 mouse, gamma counter, average ± standard error of 5 cases; for SUV Heart: isolated heart
Experimental: A whole body contrast PET test was performed using the solution containing the compound of Example 1 (7-[^18F]FTO) or Reference Example 4 ([^18F]FTO) using a DBA2 mouse.
For performing non-invasive PET imaging, in a state in which a male DBA2 mouse was anesthetized with the inhalation anesthetic isoflurane, the mouse was held in a supine body position on a PET camera Inveon (manufactured by Siemens), the solution containing each compound (about 10 MBq) was administered from the tail vein, and after 90 minutes from the administration, PET imaging was performed for 5 minutes. The PET image was reconstructed and then image processing was performed. The heart and femur were isolated 120 minutes after the administration, and the amount of radioactivity was measured with a gamma counter 2480 WIZARD^2 (manufactured by PerkinElmer Inc.). The accumulation (SUV) of each compound was calculated as {radioactivity count (MBq/cc)/[dose (MBq)/body weight (g)] in the target organ}.

[1] = test system: myocardial infarction model rat; experiment: PET test using model rat with myocardial infarction by coronary artery ligation; details: male SD rat, about 10 MBq tail vein, 20 minutes after administration, versus untreated rat
Experimental: A myocardial infarction model was prepared by coronary artery ligation using SD rats, and a thoracic contrast PET test was performed using the solution containing the compound of Example 1 (7-[^18F]FTO).
In a state in which an untreated rat or a model rat with myocardial infarction was anesthetized with the inhalation anesthetic isoflurane using a male SD rat, the rat was held in a supine body position on a PET camera Inveon (manufactured by Siemens), and the solution containing the compound (about 10 MBq) was administered from the tail vein. After 20 minutes from the administration, PET imaging was performed for 5 minutes. The PET image was reconstructed and then image processing was performed.

[2] = test system: normal cynomolgus monkeys; experiment: PET test using normal cynomolgus monkey (SUV in heart muscle and bone ROI); details: for accumulation to the heart muscle compared to [^18F]FTO / non-specific accumulation to the bone compared to [^18F]FTO: cynomolgus monkey PET, result in words; for SUV (Heart muscle): heart muscle ROI, about 300 MBq lower extremity vein, male cynomolgus monkey; for SUV (Bone): bone ROI (near the spine), n.d. = target organ cannot be confirmed in the image, ROI cannot be set
Source text: Solutions containing each compound prepared in Example 1 (7-[^18F]FTO), Example 2 (6-[^18F]FTO), Reference Example 4 ([^18F]FTO), Reference Example 5 (15-[^18F]FTO), and Reference Example 6 (17-[^18F]FTO) were used to perform a heart contrast PET test using normal cynomolgus monkeys.
For performing non-invasive PET imaging, in a state in which a male cynomolgus monkey was anesthetized with inhalation anesthetic isoflurane, the monkey was held at a supine body position on a PET camera SHR17000 (manufactured by Hamamatsu Photonics K.K.), the solution containing each compound (about 300 MBq) was administered from the lower extremity vein, and continuous imaging was performed for 180 minutes or 240 minutes after the administration. The PET images were reconstructed by dynamic row-action maximum likelihood algorithm (DRAMA) and average images are obtained every 20 minutes. Then, the region of interest (ROI) was set in the heart muscle region or bone (near the spine), and the accumulation (standardized uptake value (SUV)) of each compound was calculated as {radioactivity count in the ROI (MBq/cc)/[dose (MBq)/body weight (g)]}.
The SUV values quantified by setting the ROI for the heart muscle and the bone of each compound are shown in Tables 6 and 7 as SUV (heart muscle) and SUV (bone). […] A case where the target organ cannot be confirmed in the image and the ROI cannot be set is denoted as n.d, and a case where measurement is not performed is denoted as n.t. In addition, MIP (Maximum Intensity Projection) PET images 60 minutes and 240 minutes after the administration of the compounds of Reference Example 4 ([^18F]FTO) and Example 1 (7-[^18F]FTO) are shown in FIG. 1.

[3] = mouse, extracted organs, result in words
[4] = 20 Minutes after administration
[5] = 60 Minutes after administration
[6] = 120 Minutes after administration
[7] = 240 Minutes after administration

Row | Compound | SUV Femur (DBA2 mouse) | SUV Heart (DBA2 mouse) | accumulation to the heart compared to Reference Example 4 (DBA2 mouse; [3]) | accumulation to the heart muscle compared to [^18F]FTO [2] | SUV (Heart muscle) [2, 4] | SUV (Heart muscle) [2, 5] | SUV (Heart muscle) [2, 6] | SUV (Heart muscle) [2, 7] | SUV (Bone) [2, 4] | SUV (Bone) [2, 5] | SUV (Bone) [2, 6] | non-specific accumulation to the bone compared to [^18F]FTO [2] | SUV (Bone) [2, 7] | non-specific accumulation in the bone compared to Reference Example 4 (DBA2 mouse; [3]) | coronal section PET image of the heart in the myocardial infarction model rat [1] | non-specific accumulation to the bone compared to [^18F]FTO ([2]; listed as 7-[^18F]FTO) | non-specific accumulation to the bone compared to [^18F]FTO ([2]; listed as 15-[^18F]FTO) | non-specific accumulation to the bone compared to [^18F]FTO ([2]; listed as 17-[^18F]FTO)
1 | CCCCCCCC/C=C\CC([18F])CCSCCC(=O)O (stereo not shown) [Example 1, 3-{[(5Z)-3-[^18F]fluorotetradeca-5-en-1-yl]sulfanyl}propanoic acid] | 0.48 ± 0.04 | 3.53 ± 0.77 | excellent accumulation to the heart | further increased | 8.46 | 9.26 | 8.85 | 8.35 |  |  |  |  |  | low non-specific accumulation in the bone | the signal was deleted in a part of the elliptical heart | equivalent or reduced; also recorded: not detected at all |  | 
2 | CCCCCCCC/C=C\CCC([18F])CSCCC(=O)O (stereo not shown) [Example 2, 3-{[(5Z)-2-[^18F]fluorotetradeca-5-en-1-yl]sulfanyl}propanoic acid] |  |  |  | further increased | 8.35 | 7.25 | 6.60 |  | 1.56 | 1.96 | 2.49 | equivalent or reduced |  |  |  |  |  | 
3 | CC([18F])CCCCCC/C=C\CCCCSCCC(=O)O (stereo not shown) [Reference Example 6, 3-{[(5Z)-13-[^18F]fluorotetradeca-5-en-1-yl]sulfanyl}propanoic acid] |  |  |  | slightly reduced | 5.88 | 5.78 | 4.86 | 2.60 | 1.11 | 1.28 | 1.94 |  | 3.23 |  |  |  |  | equivalent or reduced; also recorded: the accumulation in the bone was also observed

Further lines, with some results ahead:

Row | SUV Femur (DBA2 mouse) | SUV Heart (DBA2 mouse) | accumulation to the heart compared to Reference Example 4 (DBA2 mouse; [3]) | accumulation to the heart muscle compared to [^18F]FTO [2] | SUV (Heart muscle) [2, 4] | SUV (Heart muscle) [2, 5] | SUV (Heart muscle) [2, 6] | SUV (Heart muscle) [2, 7] | SUV (Bone) [2, 4] | SUV (Bone) [2, 5] | SUV (Bone) [2, 6] | non-specific accumulation to the bone compared to [^18F]FTO [2] | SUV (Bone) [2, 7] | Compound | non-specific accumulation in the bone compared to Reference Example 4 (DBA2 mouse; [3]) | coronal section PET image of the heart in the myocardial infarction model rat [1] | non-specific accumulation to the bone compared to [^18F]FTO ([2]; listed as 7-[^18F]FTO) | non-specific accumulation to the bone compared to [^18F]FTO ([2]; listed as 15-[^18F]FTO) | non-specific accumulation to the bone compared to [^18F]FTO ([2]; listed as 17-[^18F]FTO)
4 | 2.03 ± 0.32 | 1.52 ± 0.25 |  |  | 6.45 ± 0.59 | 6.54 ± 0.51 | 5.90 ± 0.58 | 4.63 ± 0.57 | 1.42 ± 0.10 | 2.27 ± 0.13 | 3.82 ± 0.60 |  | 6.15 ± 1.02 | O=C(O)CCSCCCC/C=C\CCCCCCCC[18F] [Reference Example 4, 3-{[(5Z)-14-[^18F]fluorotetradeca-5-en-1-yl]sulfanyl}propanoic acid, reference compound] |  |  |  |  | 
5 |  |  |  | slightly reduced | 4.79 | 3.60 | 3.21 | 2.78 | 1.27 | 1.17 | 1.54 |  | 2.10 | CCCC([18F])CCCC/C=C\CCCCSCCC(=O)O (stereo not shown) [Reference Example 5, 3-{[(5Z)-11-[^18F]fluorotetradeca-5-en-1-yl]sulfanyl}propanoic acid] |  |  |  | equivalent or reduced; also recorded: the accumulation in the bone was also observed | 
